How the values were obtained:
[1] = tested on: VEGF-induced neovascularization; conditions: Non-Patent Documents 2 and 3; cited from earlier work
[2] = tested on: model mice with hyperoxia-induced retinopathy; conditions: intravitreally administered; Non-Patent Document 6; cited from earlier work
[3] = tested on: mice OIR (Oxygen-Induced Retinopathy) model; experiment: Mice OIR (oxygen-induced retinopathy) model, flat-mounted retina; type: in vivo, C57BL/6JJcl mice; conditions: 0.4% solution, ocular instillation 20 μL three times a day, day 12 to day 17 after birth, flat mount
Method: The effectiveness of (S)-(−)-1-(4-fluoro-5-isoquinolinesulfonyl)-2-methyl-1,4-homopiperazine (compound 1) in a mice OIR model commonly used as a model of ischemic retinopathy such as diabetic retinopathy was examined in the following manner. Compound 1 solutions: 0.4% solution, 0.8% solution (instillation volume: 20 μL) Fasudil solution: 0.4% solution (instillation volume: 20 μL) Test animals: C57BL/6JJcl mice (sex: male, 8 to 14 mice per group) C57BL/6JJcl mice born on the same day were reared in a 75%-oxygen environment from day 7 after birth, and were then transferred to a normal indoor environment on day 12 after birth to start administration by ocular instillation. Test groups were a saline instillation group (control), a 0.4% compound 1 solution instillation group, a 0.8% compound 1 solution instillation group, and a 0.4% fasudil solution instillation group, and saline, the compound 1 solution, or the fasudil solution was administered by ocular instillation three times a day. On day 17 after birth, ischemic retinal areas (non-perfused areas) and neovascular areas were quantified for evaluation by flat-mounting or fluorescein fundus angiography. More specifically, 1 g/kg of pentobarbital (Nembutal) was administered intraperitoneally for euthanasia under deep anesthesia, and then both eyeballs were excised and fixed with 4% paraformaldehyde (PFA) at 37° C. for 1 hour, and the corneal limbus was circumferentially incised to remove the cornea and iris from the eyeball. Then, after fixation with 4% PFA at 37° C. for 1 hour, the lens, sclera, and choroid were removed, and the eye cup including the retina was isolated. Further, the retina was fixed with 4% PFA at 37° C. for 3 hours, washed with PBS three times (15 min per wash, 37° C.), dehydrated (methanol 50% 100%, 10 min per methanol treatment, 37° C.), washed with PBS three times (15 min per wash, 37° C.), and blocked with Blocking Buffer (1% BSA, 0.5% Triton-X in PBS) for 60 minutes (37° C.). Then, the retina was treated with a primary antibody (0.7% FITC-conjugates Anti-lectin Ab in PBS, 4° C., overnight) and washed with PBS three times (15 min per wash, 37° C.). Then, 4 to 6 cuts were radially made in the eye cup, and the flat-mounted retina was covered with Crystal Mount. Then, the image of the flat-mounted retina was taken with a fluorescence microscope (BZ-9000, KEYENCE Corp, Osaka, Japan), and the proportion of the non-perfused area to the entire retina and the proportion of the neovascular area to the entire retina were calculated by the following formulas in NIH image J software. The thus obtained values were converted to relative values by regarding the obtained values of the saline instillation group (control) as 100%, and statistical analysis was performed by Wilcoxon test. Non-perfused area=area of avascular region/area of entire retina Neovascular area=area of neovascular region/area of entire retina

[4] = tested on: diabetic model rats; conditions: intravitreally administered; Non-Patent Documents 4 and 5; cited from earlier work

SMILES	effect on VEGF-induced neovascularization [1]	effect on retinal neovascularization [2]	relative value of the neovascular area (saline instillation group = 100%) [3] [%]	relative value of the non-perfused area (saline instillation group = 100%) [3] [%]	effect on endothelial cells in diabetic model rats [4]
C[C@@H](N)[C@H]1CC[C@H](C(=O)Nc2ccncc2)CC1 [Y-27632]	effect of inhibiting VEGF-induced neovascularization	effect of suppressing retinal neovascularization	–	–	–
O=S(=O)(c1cccc2cnccc12)N1CCCNCC1 [fasudil, reference compound]	effect of inhibiting VEGF-induced neovascularization	–	102.2	107.7	effect of protecting endothelial cells

From patent US20190365776A1, “THERAPEUTIC AGENT FOR OCULAR FUNDUS DISEASE” (KYUSHU UNIVERSITY, NATIONAL UNIVERSITY CORPORATION, priority 2013, published 2019)
